According to paper PMC6127852 (Journal of Enzyme Inhibition and Medicinal Chemistry, 2018):
Where two headings read alike, the source gives them in different places.

Experiments:
[1] = test system: bloodstream form T. brucei (strain 221); assay: Anti-trypanosomal screening, resazurin; format: cell-based; conditions: Trypanosoma brucei, mean of triplicate ± SEM
Method in brief: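 Parasites grown in modified Iscove's medium with compound in triplicate; resazurin added at 48 h and plates read after a further 16 h.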

[2] = test system: E. faecalis ATCC 29212; assay: Broth microdilution MIC, E. faecalis ATCC 29212; format: cell-based; conditions: Enterococcus faecalis, ATCC29212; Table S2
Method in brief: (§1)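 Growth inhibition is assessed in Mueller–Hinton broth supplemented with calcium and magnesium cations, following the CLSI standard microdilution format. The MIC is reported from three replicate tests.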

[3] = test system: polyA-polyU (RNA, polymer) A/U; assay: UV melting at 260 nm; conditions: PBS, I = 0.05 M, cations not specified, pH 7, r = 0.3 [compound]/[polynucleotide], error ±0.5, biphasic
[4] = test system: L6 cells (a rat myoblast line); assay: Cytotoxicity against mammalian cells, resazurin; format: cell-based; conditions: L6, 144 h, 6 d incubation
Description: Cytotoxicity against mammalian cells was also assessed using microtitre plates. Briefly, L6 cells (a rat myoblast line) were seeded at 1 × 10^4 ml^−1 in 200 µl of growth medium containing different compound concentrations. The plates were then incubated for 6 d at 37 °C and 20 µl resazurin added to each well. After a further 8 h incubation, the fluorescence was determined using a Spectramax plate reader, as outlined above.

[5] = test system: polyC-polyG; assay: UV–Vis titration with polyC-polyG (Scatchard); format: binding; conditions: PBS, pH 7; for Hypochromic effect H/%, polyC-polyG: UV–Vis titration, calculated by Scatchard equation; for log Ks, polyC-polyG: binding constant, Scatchard
Method in brief: (§2)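 Polynucleotides titrated into compound at 1.48 × 10^−5 mol dm^−3 in PBS (I = 0.05 mol dm^−3, pH 7.0), with UV–Vis spectra in 1 cm quartz cells; ctDNA sonicated and filtered, concentration as nucleobases. Ks and n from Scatchard analysis, in some cases only from data at r ≥ 0.1.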

[6] = test system: P. aeruginosa ATCC 27853; assay: Broth microdilution MIC, P. aeruginosa ATCC 27853; format: cell-based; conditions: Pseudomonas aeruginosa, ATCC27853; Table S2
Method in brief: as §1

[7] = test system: K. pneumonia ATCC 700803; assay: Broth microdilution MIC, K. pneumoniae ATCC 700803; format: cell-based; conditions: Klebsiella pneumoniae, ATCC700803; Table S2
Method in brief: as §1

[8] = test system: ctDNA; assay: Thermal melting (ΔTm) of ctDNA; format: binding, calf; conditions: PBS, pH 7; for ΔTm, ctDNA, r = 0.3: r = [compound]/[polynucleotide] 0.3, error ±0.5 °C
Method in brief: (§3)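 UV melting monitored at 260 nm in 1 cm cuvettes, ligand absorbance subtracted and normalised; ΔTm = Tm(complex) − Tm(free nucleic acid), mean of at least two runs, error ±0.5 °C. Compound tested at r = 0.1, 0.3, 0.5 and 0.7 eq ([compound]/[polynucleotide]) with ctDNA and polyA-polyU.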

[9] = test system: E. coli ATCC 25925; assay: Broth microdilution MIC, E. coli ATCC 25925; format: cell-based; conditions: Escherichia coli, ATCC25925; Table S2
Method in brief: as §1

[10] = test system: S. aureus MSSA; assay: Broth microdilution MIC, MSSA clinical strain; format: cell-based; conditions: Staphylococcus aureus
Method in brief: (§4)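 MICs were set by CLSI broth microdilution in cation (Ca2+, Mg2+)-adjusted Mueller–Hinton broth, in triplicate. Panel: S. aureus ATCC 25923, MRSA, MSSA, E. faecalis, VRE E. faecium, E. coli ATCC 25925, P. aeruginosa ATCC 27853, A. baumannii ATCC 19606 and ESBL K. pneumoniae ATCC 27736.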

[11] = test system: polyA-polyU (RNA, polymer) A/U; assay: UV-Vis titration, Scatchard; conditions: PBS, I = 0.05 M (Table 1 says I = 0.015 M), cations not specified, I = 0.015 M (Methods: 0.05 M), pH 7, per base
[12] = test system: E. faecium VRE; assay: Broth microdilution MIC, VRE clinical strain; format: cell-based; conditions: Enterococcus faecium
Method in brief: as §4

[13] = test system: polyG-polyC (polyC-polyG) (RNA, polymer) G/C; assay: UV-Vis titration, Scatchard; conditions: PBS, I = 0.05 M (Table 1 says I = 0.015 M), cations not specified, I = 0.015 M (Methods: 0.05 M), pH 7, per base
[14] = test system: polyA-polyU; assay: Thermal melting (ΔTm) of polyA-polyU; format: binding; conditions: for ΔTm, polyA-polyU, r = 0.1: PBS, pH 7; for ΔTm, polyA-polyU, r = 0.3 / ΔTm, polyA-polyU, r = 0.5: first melting midpoint; for ΔTm, polyA-polyU, r = 0.3, second melting midpoint / ΔTm, polyA-polyU, r = 0.5, second melting midpoint: footnote c: biphasic melting curve
Method in brief: as §3

[15] = test system: S. aureus MRSA; assay: Broth microdilution MIC, MRSA clinical strain; format: cell-based; conditions: Staphylococcus aureus, antibiotic-resistant clinical strain
Method in brief: as §4

[16] = test system: calf thymus ctDNA; assay: UV–Vis titration with ctDNA (Scatchard); format: binding; conditions: for Hypochromic effect H/%, ctDNA: UV–Vis titration, calculated by Scatchard equation
Method in brief: as §2

[17] = test system: S. aureus ATCC 25923; assay: Broth microdilution MIC, S. aureus ATCC 25923; format: cell-based; conditions: Staphylococcus aureus, ATCC25923; Table S2
Method in brief: as §1

[18] = test system: polyA-polyU; assay: UV–Vis titration with polyA-polyU (Scatchard); format: binding; conditions: PBS, pH 7; for Hypochromic effect H/%, polyA-polyU: UV–Vis titration, calculated by Scatchard equation; for log Ks, polyA-polyU: binding constant, Scatchard
Method in brief: as §2

[19] = test system: A. baumannii ATCC 19606; assay: Broth microdilution MIC, A. baumannii ATCC 19606; format: cell-based; conditions: Acinetobacter baumannii, ATCC19606; Table S2
Method in brief: as §1

[20] = test system: P. aeruginosa ESBL; assay: Broth microdilution MIC, ESBL P. aeruginosa clinical strain; format: cell-based; conditions: Pseudomonas aeruginosa
[21] = test system: E. coli ESBL; assay: Broth microdilution MIC, ESBL E. coli clinical strain; format: cell-based; conditions: Escherichia coli
[22] = test system: K. pneumoniae ESBL; assay: Broth microdilution MIC, ESBL K. pneumoniae clinical strain; format: cell-based; conditions: Klebsiella pneumoniae
Description: The compounds were evaluated for their in vitro anti-bacterial activity against Gram-positive bacteria: S. aureus (ATCC 25923), MRSA, methicillin-sensitive S. aureus (MSSA), E. faecalis, vancomycin-resistant E. faecium (VREF), and Gram-negative bacteria: E. coli (ATCC 25925), P. aeruginosa (ATCC 27853), A. baumannii (ATCC 19606) and ESBL-producing K. pneumoniae (ATCC 27736). Standard broth microdilution method as recommended in guidelines of Clinical and Laboratory Standards Institute[61] ^, [65] ^, [66] was applied and the minimum inhibitory concentration (MIC) of compounds was tested. In short, testing was performed in U-bottomed 96-well sterile plastic microdilution trays (Falcon 3077, Becton Dickinson Labware, Franklin Lakes, NJ) in cation (Ca^2+ and Mg^2+) adjusted Mueller–Hinton broth medium (Becton Dickinson and Co., Cockeysville, MD). All testings were performed in triplicate.

[23] = test system: bloodstream form T. brucei (strain 221); conditions: read-out: T. brucei IC50 (reference drug), ref [83]; cited from earlier work

SMILES	IC50 [1]	IC90 [1]	MIC [2]	Hypochromic effect H/%, polyC-polyG [5]	log Ks, polyC-polyG [5]	MIC [6]	MIC [7]	ΔTm, ctDNA, r = 0.5 [8]	ΔTm, ctDNA, r = 0.7 [8]	ΔTm, ctDNA, r = 0.3 [8]	MIC [9]	MIC [10]	log Ks [11]	MIC [12]	log Ks [13]	ΔTm, polyA-polyU, r = 0.1 [14]	ΔTm, polyA-polyU, r = 0.3 [14]	ΔTm, polyA-polyU, r = 0.3, second melting midpoint [14]	ΔTm, polyA-polyU, r = 0.5 [14]	ΔTm, polyA-polyU, r = 0.5, second melting midpoint [14]	further results
COc1ccc(-n2cc(COc3ccc(-c4nc5cc(C(=N)NC(C)C)ccc5[nH]4)cc3)nn2)cc1.Cl.Cl [Compound 8b, N-isopropyl-2–(4-((1–(4-methoxyphenyl)-1H-1,2,3-triazol-4-yl)methoxy)phenyl)-1H-benz[d]imidazole-5-carboximidamide dihydrochloride]	1.1 ± 0.3 µM	3.5 ± 0.2 µM	64 µg/mL	5.05%	6.39	> 256 µg/mL	> 256 µg/mL	3.96 °C	4.47 °C	4.03 °C	256 µg/mL	64 µg/mL	5.27	128 µg/mL	6.39	1.17 °C	1.32 °C	6.38^c °C	1.56 °C	8.49^c °C	ΔTm ([3]; second midpoint 6.38, per base): 1.32 °C; IC50 [4]: > 300 µM; melting point: 188 to 191 °C; MIC [15]: 16 µg/mL; Hypochromic effect H/%, ctDNA ([16]; PBS, pH 7): 29.7%; log Ks, ctDNA (range r ≥ 0.1) ([16]; footnote f: mixed binding mode, calculated in range r ≥ 0.1): 6.06; MIC [17]: 128 µg/mL; Hypochromic effect H/%, polyA-polyU [18]: 57.8%; log Ks, polyA-polyU [18]: 5.27; MIC [19]: > 256 µg/mL
Cl.Cl.N=C(N)c1ccc2[nH]c(-c3ccc(OCc4cn(CSc5ccccc5)nn4)cc3)nc2c1 [Compound 7e, 2–(4-((1-((Phenylthio)methyl)-1H-1,2,3-triazol-4-yl)methoxy)phenyl)-1H-benz[d]imidazole-5-carboximidamide dihydrochloride]	10.2 ± 1.3 µM	15.9 ± 0.4 µM	128 µg/mL	5.79%	5.89	64 µg/mL	128 µg/mL	2.62 °C	2.66 °C	2.19 °C	32 µg/mL	128 µg/mL	6.20	64 µg/mL	5.89	0.39 °C	1.11 °C	12.58^c °C	1.11 °C	15.04^c °C	ΔTm ([3]; second midpoint 12.58, per base): 1.11 °C; MIC [20]: 32 µg/mL; melting point: 173 to 176 °C; MIC [21]: 32 µg/mL; MIC [15]: 32 µg/mL; Hypochromic effect H/%, ctDNA ([16]; PBS, pH 7): 38.2%; log Ks, ctDNA ([16]; binding constant, Scatchard, PBS, pH 7): 5.33; MIC [17]: 32 µg/mL; Hypochromic effect H/%, polyA-polyU [18]: 31.7%; log Ks, polyA-polyU [18]: 6.20; MIC [19]: > 256 µg/mL; MIC [22]: 16 µg/mL
CC1CS(=O)(=O)CCN1/N=C/c1ccc([N+](=O)[O-])o1 (stereo not drawn) [Nifurtimox, nifurtimox]																					IC50 [23]: 4.4 ± 0.7 µM
